Laboratory results from US11267825B2 (AICURIS GMBH & CO. KG, priority 2017, dated 2022).

How the values were obtained:
HBV = assay: Determination of HBV DNA from the supernatants of HepAD38 cells (anti-HBV activity); type: cell-based, hepatitis B virus; conditions: Hepatitis B virus, 144 h; HBV DNA in HepAD38 supernatant at day 6; read-out: Cell Activity (EC50)
Experimental: Determination of HBV DNA from the Supernatants of HepAD38 Cells
The anti-HBV activity was analysed in the stable transfected cell line HepAD38, which has been described to secrete high levels of HBV virion particles (Ladner et al., 1997). In brief, HepAD38 cells were cultured at 37° C. at 5% CO2 and 95% humidity in 200 μl maintenance medium, which was Dulbecco's modified Eagle's medium/Nutrient Mixture F-12 (Gibco, Karlsruhe), 10% fetal bovine serum (PAN Biotech Aidenbach) supplemented with 50 μg/ml penicillin/streptomycin (Gibco, Karlsruhe), 2 mM L-glutamine (PAN Biotech, Aidenbach), 400 μg/ml G418 (AppliChem, Darmstadt) and 0.3 μg/ml tetracycline. Cells were subcultured once a week in a 1:5 ratio, but were usually not passaged more than ten times. For the assay 60,000 cells were seeded in maintenance medium without any tetracycline into each well of a 96-well plate and treated with serial half-log dilutions of test compound. To minimize edge effects the outer 36 wells of the plate were not used but were filled with assay medium. On each assay plate six wells for the virus control (untreated HepAD38 cells) and six wells for the cell control (HepAD38 cells treated with 0.3 μg/ml tetracycline) were allocated, respectively. In addition, one plate set with reference inhibitors like BAY 41-4109, entecavir, and lamivudine instead of screening compounds were prepared in each experiment. In general, experiments were performed thrice in triplicates. At day 6 HBV DNA from 100 μl filtrated cell culture supernatant (AcroPrep Advance 96 Filter Plate, […] Supor membran, PALL GmbH, Dreieich) was automatically purified on the MagNa Pure LC instrument using the MagNA Pure 96 DNA and Viral NA Small Volume Kit (Roche Diagnostics, Mannheim) according to the instructions of the manufacturer. EC50 values were calculated from relative copy numbers of HBV DNA. In brief, 5 μl of the 100 μl eluate containing HBV DNA were subjected to PCR LC480 Probes Master Kit (Roche) together with 1 μM antisense primer […], 0.5 μM sense primer […], 0.3 μM hybprobes […]-FL and LC640-[…]-PH (TIBMolBiol, Berlin) to a final volume of 12.5 μl. The PCR was performed on the Light Cycler 480 real time system (Roche Diagnostics, Mannheim) using the following protocol: Pre-incubation for 1 min at 95° C., amplification: 40 cycles×(10 sec at 95° C., 50 sec at 60° C., 1 sec at 70° C.), cooling for 10 sec at 40° C. Viral load was quantitated against known standards using HBV plasmid DNA of pCH-9/3091 (Nassal et al., 1990, Cell 63: 1357-1363) and the LightCycler 480 SW 1.5 software (Roche Diagnostics, Mannheim) and EC50 values were calculated using non-linear regression with GraphPad Prism 6 (GraphPad Software Inc., La Jolla, USA).

HBV core protein = HBV core protein (UniProt P03146); type: biochemical; conditions: read-out: Assembly Activity (IC50); BODIPY-FL labelled core protein, assembly started with NaCl, read after 6 min
Experimental: Biochemical Capsid Assembly Assay
The screening for assembly effector activity was done based on a fluorescence quenching assay published by Zlotnick et al. (2007). The C-terminal truncated core protein containing 149 amino acids of the N-terminal assembly domain was fused to a unique cysteine residue at position 150 and was expressed in E. coli using the pET expression system (Merck Chemicals, Darmstadt). Purification of core dimer protein was performed using a sequence of size exclusion chromatography steps. In brief, the cell pellet from 1 L BL21 (DE3) Rosetta2 culture expressing the coding sequence of core protein cloned NdeI/XhoI into expression plasmid pET21b was treated for 1 h on ice with a native lysis buffer (Qproteome Bacterial Protein Prep Kit; Qiagen, Hilden). After a centrifugation step the supernatant was precipitated during 2 h stirring on ice with 0.23 g/ml of solid ammonium sulfate. Following further centrifugation the resulting pellet was resolved in buffer A (100 mM Tris, pH 7.5; 100 mM NaCl; 2 mM DTT) and was subsequently loaded onto a buffer A equilibrated CaptoCore 700 column (GE HealthCare, Frankfurt). The column flow through containing the assembled HBV capsid was dialyzed against buffer N (50 mM NaHCO3 pH 9.6; 5 mM DTT) before urea was added to a final concentration of 3M to dissociate the capsid into core dimers for 1.5 h on ice. The protein solution was then loaded onto a 1 L Sephacryl S300 column. After elution with buffer N core dimer containing fractions were identified by SDS-PAGE and subsequently pooled and dialyzed against 50 mM HEPES pH 7.5; 5 mM DTT. To improve the assembly capacity of the purified core dimers a second round of assembly and disassembly starting with the addition of 5 M NaCl and including the size exclusion chromatography steps described above was performed. From the last chromatography step core dimer containing fractions were pooled and stored in aliquots at concentrations between 1.5 to 2.0 mg/ml at −80° C.
Immediately before labelling the core protein was reduced by adding freshly prepared DTT in a final concentration of 20 mM. After 40 min incubation on ice storage buffer and DTT was removed using a Sephadex G-25 column (GE HealthCare, Frankfurt) and 50 mM HEPES, pH 7.5. For labelling 1.6 mg/ml core protein was incubated at 4° C. and darkness overnight with BODIPY-FL maleimide (Invitrogen, Karlsruhe) in a final concentration of 1 mM. After labelling the free dye was removed by an additional desalting step using a Sephadex G-25 column. Labelled core dimers were stored in aliquots at 4° C. In the dimeric state the fluorescence signal of the labelled core protein is high and is quenched during the assembly of the core dimers to high molecular capsid structures. The screening assay was performed in black 384 well microtiter plates in a total assay volume of 10 μl using 50 mM HEPES pH 7.5 and 1.0 to 2.0 μM labelled core protein. Each screening compound was added in 8 different concentrations using a 0.5 log-unit serial dilution starting at a final concentration of 100 μM, 31.6 μM or 10 μM. In any case the DMSO concentration over the entire microtiter plate was 0.5%. The assembly reaction was started by the injection of NaCl to a final concentration of […] which induces the assembly process to approximately 25% of the maximal quenched signal. 6 min after starting the reaction the fluorescence signal was measured using a Clariostar plate reader (BMG Labtech, Ortenberg) with an excitation of 477 nm and an emission of 525 nm. As 100% and 0% assembly control HEPES buffer containing 2.5 M and 0 M NaCl was used. Experiments were performed thrice in triplicates. EC50 values were calculated by non-linear regression analysis using the Graph Pad Prism 6 software (GraphPad Software, La Jolla, USA).

Chain of HBV core protein (P03146 whole entry, looked up): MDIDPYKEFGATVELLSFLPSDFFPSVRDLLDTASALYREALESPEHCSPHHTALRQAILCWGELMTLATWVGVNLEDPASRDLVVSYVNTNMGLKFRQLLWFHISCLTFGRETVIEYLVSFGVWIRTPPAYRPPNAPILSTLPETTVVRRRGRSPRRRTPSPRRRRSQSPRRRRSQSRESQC

SMILES	EC50 (HBV) [nM]	IC50 (HBV core protein) [nM]
CC(C)Nc1nc2c(s1)CN(C(=O)c1cc3ccccc3[nH]1)CC2 [Example 128, 5-(1H-indole-2-carbonyl)-N-(propan-2-yl)-4H,5H,6H,7H-[1,3]thiazolo[5,4-c]pyridin-2-amine]	< 1000	< 5000
CC(C)(CO)Nc1nc2c(s1)CN(C(=O)c1cc3ccccc3[nH]1)CC2 [Example 68, 2-{[5-(1H-indole-2-carbonyl)-4H,5H,6H,7H-[1,3]thiazolo[5,4-c]pyridin-2-yl]amino}-2-methylpropan-1-ol]	< 1000	< 5000
CCOc1nc2c(s1)CN(C(=O)c1cc3ccccc3[nH]1)CC2 [Example 152, 2-{2-ethoxy-4H,5H,6H,7H-[1,3]thiazolo[5,4-c]pyridine-5-carbonyl}-1H-indole]	1000 to 10000	< 100000
O=C(c1cc2c(C(F)(F)F)cccc2[nH]1)N1CCc2nc(NCC3CCOC3)sc2C1 (stereo not drawn) [Example 123, 5-(4-(trifluoromethyl)-1H-indole-2-carbonyl)-N-[(oxolan-3-yl)methyl]-4H,5H,6H,7H-[1,3]thiazolo[5,4-c]pyridin-2-amine]	< 1000	5000 to 10000
O=C(Nc1nc2c(s1)CN(C(=O)c1cc3c(F)cc(F)cc3[nH]1)CC2)C1CCOCC1 [Example 319, N-[5-(4,6-difluoro-1H-indole-2-carbonyl)-4H,5H,6H,7H-[1,3]thiazolo[5,4-c]pyridin-2-yl]oxane-4-carboxamide]	< 1000	< 5000
COC1(CNc2nc3c(s2)CN(C(=O)c2cc4ccccc4[nH]2)CC3)CCOC1 (stereo not drawn) [Example 246, 5-(1H-indole-2-carbonyl)-N-[(3-methoxyoxolan-3-yl)methyl]-4H,5H,6H,7H-[1,3]thiazolo[5,4-c]pyridin-2-amine]	< 1000	< 5000
Cc1nc2c(s1)CN(C(=O)c1cc3c(Cl)c(Cl)ccc3[nH]1)CC2 [Example 185, 4,5-dichloro-2-{2-methyl-4H,5H,6H,7H-[1,3]thiazolo[5,4-c]pyridine-5-carbonyl}-1H-indole]	< 100000	< 100000
CC(Nc1nc2c(s1)CN(C(=O)c1cc3ccccc3[nH]1)CC2)C(F)(F)F (stereo not drawn) [Example 22, 5-(1H-indole-2-carbonyl)-N-(1,1,1-trifluoropropan-2-yl)-4H,5H,6H,7H-[1,3]thiazolo[5,4-c]pyridin-2-amine]	< 1000	< 100000
Nc1nc2c(s1)CN(C(=O)c1cc3ccc(C(F)(F)F)cc3[nH]1)CC2 [Example 199, 5-[6-(trifluoromethyl)-1H-indole-2-carbonyl]-4H,5H,6H,7H-[1,3]thiazolo[5,4-c]pyridin-2-amine]	< 1000	< 5000
CC(C)OC1(CNc2nc3c(s2)CN(C(=O)c2cc4ccccc4[nH]2)CC3)CCC1 [Example 413, 5-(1H-indole-2-carbonyl)-N-{[1-(propan-2-yloxy)cyclobutyl]methyl}-4H,5H,6H,7H-[1,3]thiazolo[5,4-c]pyridin-2-amine]	< 1000	< 5000
O=C(c1cc2ccccc2[nH]1)N1CCc2nc(NC[C@@H]3COC[C@@H]3O)sc2C1 [Example 241, (3R,4R)-4-({[5-(1H-indole-2-carbonyl)-4H,5H,6H,7H-[1,3]thiazolo[5,4-c]pyridin-2-yl]amino}methyl)oxolan-3-ol]	< 1000	< 5000
CC(O)c1cc(F)cc2[nH]c(C(=O)N3CCc4nc(NCC5(O)CCC5)sc4C3)cc12 (stereo not drawn) [Example 366, 1-[({5-[6-fluoro-4-(1-hydroxyethyl)-1H-indole-2-carbonyl]-4H,5H,6H,7H-[1,3]thiazolo[5,4-c]pyridin-2-yl}amino)methyl]cyclobutan-1-ol]	< 1000	< 100000
CNC(=O)Nc1nc2c(s1)CN(C(=O)c1cc3c(Cl)cc(F)cc3[nH]1)CC2 [Example 266, 1-[5-(4-chloro-6-fluoro-1H-indole-2-carbonyl)-4H,5H,6H,7H-[1,3]thiazolo[5,4-c]pyridin-2-yl]-3-methylurea]	< 1000	< 5000
O=C(Nc1nc2c(s1)CN(C(=O)c1cc3ccc(Cl)cc3[nH]1)CC2)C1CCOCC1 [Example 318, N-[5-(6-chloro-1H-indole-2-carbonyl)-4H,5H,6H,7H-[1,3]thiazolo[5,4-c]pyridin-2-yl]oxane-4-carboxamide]	< 1000	< 5000
O=C(CC1CCOC1)Nc1nc2c(s1)CN(C(=O)c1cc3ccccc3[nH]1)CC2 (stereo not drawn) [Example 351, N-[5-(1H-indole-2-carbonyl)-4H,5H,6H,7H-[1,3]thiazolo[5,4-c]pyridin-2-yl]-2-(oxolan-3-yl)acetamide]	< 1000	
O=C(c1cc2ccccc2[nH]1)N1CCc2nc(NC(=O)C3(O)CC3)sc2C1 [Example 346, 1-hydroxy-N-[5-(1H-indole-2-carbonyl)-4H,5H,6H,7H-[1,3]thiazolo[5,4-c]pyridin-2-yl]cyclopropane-1-carboxamide]	< 1000	
CN1CC(C(=O)Nc2nc3c(s2)CN(C(=O)c2cc4ccccc4[nH]2)CC3)C1 [Example 383, N-[5-(1H-indole-2-carbonyl)-4H,5H,6H,7H-[1,3]thiazolo[5,4-c]pyridin-2-yl]-1-methylazetidine-3-carboxamide]	1000 to 10000	
O=C(c1cc2cc(F)c(Cl)cc2[nH]1)N1CCc2nc(NCC3(O)CCC3)sc2C1 [Example 373, 1-({[5-(6-chloro-5-fluoro-1H-indole-2-carbonyl)-4H,5H,6H,7H-[1,3]thiazolo[5,4-c]pyridin-2-yl]amino}methyl)cyclobutan-1-ol]	< 1000	
O=C(c1cc2ccccc2[nH]1)N1CCc2nc(NCC3(O)CC(F)(F)C3)sc2C1 [Example 440, 3,3-difluoro-1-({[5-(1H-indole-2-carbonyl)-4H,5H,6H,7H-[1,3]thiazolo[5,4-c]pyridin-2-yl]amino}methyl)cyclobutan-1-ol]	< 1000	
